From EP4813383A1, “USE OF TAFAMIDIS AND PHARMACEUTICALLY ACCEPTABLE SALT THEREOF IN PREVENTION, ALLEVIATION, OR TREATMENT OF DISEASES ASSOCIATED WITH HIF-2a” (Huaya Jiyuan (Shenzhen) Pharmaceutical Co., Ltd., priority 2024, dated 2025)

How the values were obtained:
[1] = system: Unilateral ureteral obstruction (UUO)-induced mouse model; experiment: Unilateral ureteral obstruction (UUO)-induced mouse model of renal injury and anemia; assay type: in vivo, Male Balb/c mice; details: for Pathological score for renal tubular injury: H&E staining, Paller score, UUO control group 4.56 ± 0.19; for Reduction in fibrosis: Masson's trichrome staining, interstitial fibrosis, UUO control group 26.0 ± 1.9%; for Urea level: serum after final treatment, UUO control group 6.26 ± 0.14
Source text: Animal model establishment: Male Balb/c mice are anesthetized with isoflurane and then secured to an operating table with medical tape. After preparation of an abdominal midline incision site, the surgical part is disinfected with 75% ethanol-iodine tincture-ethanol. Subsequently, an incision is made along the linea alba of the mouse, and the incision is held open with a laparotomy retractor. The left ureter is isolated using a sterile cotton swab and curved forceps and ligated near the bladder dome using 3-0 suture. One drop of normal saline is added into the abdominal cavity, and then the abdomen is sutured. Following recovery on a heating pad, the mouse is returned to the cage, maintained under normal feeding and drinking conditions, and observed, thereby completing model establishment. For the sham-operated group, all procedures are the same as those of the model group except that no ligation is performed. For the treatment groups in the UUO model, male Balb/c mice, after a one-week acclimation period, are orally administered tafamidis (tafamidis treatment group) or roxadustat (roxadustat treatment group) by gavage for three consecutive days. The dose in the first tafamidis treatment group is 5 mg/kg/day, the dose in the second tafamidis treatment group is 10 mg/kg/day, and the dose in the roxadustat treatment group is 10 mg/kg/day. The drug administration is continued for seven days after unilateral ureteral obstruction surgery. A solvent is administered to the mice in the sham-operated group and the UUO control group based on the same dosing regimen. Serum analysis is performed after the final treatment. Serum analysis is performed using a Mindray BS-2000M automated […] analyzer with commercially available kits based on the manufacturer's instructions. After sample collection, the […] are euthanized. Statistical significance is determined by one-way analysis of variance (ANOVA), and then a Dunnett's test is performed for comparison with the UUO control group (*P < 0.05, **P < 0.01, ***P < 0.001).
Isolated left kidney samples from mice are fixed in 4% paraformaldehyde, dehydrated, embedded in paraffin, and sectioned. The tissue sections are 4 µm thick, and are subsequently subjected to histochemical staining such as H&E staining and Masson's trichrome staining. After staining, the sections are scanned using advanced three-dimensional histological imaging technology, and high-resolution images are captured using a Pannoramic DESK/MIDI/250/1000 system. H&E staining is analyzed to evaluate renal tubular injury. 10 fields are randomly selected from each sample, and examined at a 40× magnification. The degree of renal tubular injury is assessed using a semi-quantitative scoring system (Paller score): 0 (no injury), 1 (<25% injury), 2 (25% to 50% injury), 3 (50% to 75% injury), and 4 (>75% injury). In addition, the entire tissue section is assessed at a 0.7× magnification to determine the extent of collagen fiber deposition shown by Masson's trichrome staining. Semi-quantitative analysis of the collagen fiber area is performed using Image-Pro Plus 6.0 software. Statistical significance is determined by one-way analysis of variance (ANOVA), and then a Dunnett's test is performed for comparison with the UUO control group (*P < 0.05, **P < 0.01, ***P < 0.001).

[2] = system: 5/6 nephrectomy (5/6Nx) rat model; experiment: 5/6 nephrectomy (5/6Nx) rat model; assay type: in vivo, Male Sprague Dawley (SD) rats
Source text: Male Sprague Dawley (SD) rats are used to establish a renal injury-induced anemia model through 5/6 nephrectomy surgery to investigate the erythropoiesis-promoting effect of tafamidis. After a one-week acclimation period, the rats are anesthetized with isoflurane, and the left kidney is exposed through a midline abdominal incision. Ligatures are placed at the upper one-third and lower one-third positions of the kidney, and the corresponding renal tissues outside the ligatures are excised. After a one-week recovery period, the right kidney is excised, with eight rats assigned to the nephrectomy group and the remaining eight rats serving as a non-operated normal control group. At week 4, renal dysfunction in the operated rats is confirmed by assessing serum urea and creatinine levels. Tafamidis and roxadustat are dissolved in a vehicle containing 10% dimethyl sulfoxide (DMSO), 30% polyethylene glycol 400 (PEG 400), 5% Tween-80, 1% hydrochloric acid (113.3 mM), 9% 0.1 N sodium hydroxide, and 45% normal saline. […] Starting from week 6, the tafamidis treatment group and the roxadustat group are orally administered the corresponding compound at 10 mg/kg daily (10 mg orally per day per 1 kg body weight of rat) for four weeks, while the sham-operated group and the 5/6 nephrectomy model (5/6Nx) rats are administered the vehicle based on the same dosing regimen. Hematological analysis is performed weekly, and urine samples are collected on the day following the final treatment, so as to determine urinary total protein (UTP) and urinary creatinine (UCREA). Hematological analysis is performed using the Sysmex Europe XN-2000 automated hematology analyzer, and urinalysis is performed using the Cobas C501 automated analyzer, both using commercially available kits in accordance with the manufacturers' instructions. After sample collection, the rats are euthanized. Statistical significance is determined by one-way analysis of variance (ANOVA), and then a Dunnett's test is performed for comparison with the 5/6Nx group (*P < 0.05, **P < 0.01, ***P < 0.001).

[3] = 10 mg/kg/day oral gavage, listed as Roxadustat
[4] = 10 mg/kg daily oral for four weeks, urine on the day after final treatment

Row | SMILES | Pathological score for renal tubular injury ([1]; 10 mg/kg/day oral gavage) | Pathological score for renal tubular injury [1, 3] | Reduction in fibrosis ([1]; 10 mg/kg/day oral gavage) [%] | Reduction in fibrosis [1, 3] | Urea level ([1]; 10 mg/kg/day oral gavage) | Urea level [1, 3] | UTP excretion levels, increase compared with the 5/6Nx group ([2]; 10 mg/kg daily oral for four weeks, urine on the day after final treatment, p < 0.01) [fold] | RBC levels (erythrocytosis) ([2]; 10 mg/kg daily oral, day 14, against the physiological range of the healthy control group) | Gross observation: pallor of the obstructed kidney ([1]; 5 mg/kg/day oral gavage) | Pathological score for renal tubular injury ([1]; 5 mg/kg/day oral gavage) | Urea level ([1]; 5 mg/kg/day oral gavage) | UTP excretion levels [2, 4] | effect on UCREA [2, 4] | red blood cell (RBC) count ([2]; 10 mg/kg daily oral, week 4, 5/6Nx group 7.7 ± 0.3 × 10^12, p < 0.05)
1 | Cc1nc(C(=O)NCC(=O)O)c(O)c2ccc(Oc3ccccc3)cc12 [roxadustat] | 4.78 ± 0.09 | 4.78 ± 0.09, P = 0.98 | 21.8 ± 1.6 | 21.8 ± 1.6%, P = 0.37 | 5.36 ± 0.10 mmol/L | 5.36 ± 0.10, P < 0.001 mmol/L | 3.3 | notable erythrocytosis |  |  |  |  |  | 
2 | O=C(O)c1ccc2nc(-c3cc(Cl)cc(Cl)c3)oc2c1 [tafamidis, 2-(3,5-dichlorophenyl)-1,3-benzoxazole-6-carboxylic acid] | 2.93 ± 0.35, P < 0.05 |  |  |  | 5.28 ± 0.29, P < 0.05 mmol/L |  |  |  | significantly alleviates | 2.85 ± 0.83, P < 0.05 | 5.67 ± 0.23, P = 0.10 mmol/L | remain at baseline levels | essentially no effect | 8.2 ± 0.3 × 10^12 cells/L
